Calls of active or inactive are those of the source.
Columns and labels:
Protein RecA = biological target: T1, Protein RecA (Mycobacterium tuberculosis, UniProt P9WHJ3); assay: Fluorescence Cell-Free Homogeneous Dose Retest to Identify Inhibitors of RecA-Intein Splicing Activity. [Related pubchem assays (depositor defined):AID2097, AID2223, AID489010, AID492950]; format: functional
T1 sequence (P9WHJ3 whole entry): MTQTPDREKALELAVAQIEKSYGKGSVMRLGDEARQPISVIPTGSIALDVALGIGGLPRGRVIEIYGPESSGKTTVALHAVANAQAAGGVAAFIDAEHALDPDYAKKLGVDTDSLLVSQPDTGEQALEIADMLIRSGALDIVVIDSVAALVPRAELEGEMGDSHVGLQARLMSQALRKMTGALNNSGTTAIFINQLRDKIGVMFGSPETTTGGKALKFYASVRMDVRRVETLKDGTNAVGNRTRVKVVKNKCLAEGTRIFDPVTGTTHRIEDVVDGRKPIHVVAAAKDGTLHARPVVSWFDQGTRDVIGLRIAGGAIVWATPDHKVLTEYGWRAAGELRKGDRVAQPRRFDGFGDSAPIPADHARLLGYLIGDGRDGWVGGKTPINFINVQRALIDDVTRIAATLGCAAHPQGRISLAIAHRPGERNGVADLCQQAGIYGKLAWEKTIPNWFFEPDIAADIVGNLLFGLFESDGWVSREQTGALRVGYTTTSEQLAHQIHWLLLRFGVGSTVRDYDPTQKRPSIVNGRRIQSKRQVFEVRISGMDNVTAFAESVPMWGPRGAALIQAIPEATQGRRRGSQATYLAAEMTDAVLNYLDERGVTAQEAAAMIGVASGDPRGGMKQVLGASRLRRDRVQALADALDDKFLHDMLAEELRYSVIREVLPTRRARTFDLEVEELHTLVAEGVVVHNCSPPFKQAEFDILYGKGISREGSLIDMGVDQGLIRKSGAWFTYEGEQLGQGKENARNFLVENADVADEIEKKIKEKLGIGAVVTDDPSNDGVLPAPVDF

Coagulation factor XII = biological target: T2, Coagulation factor XII (Homo sapiens, UniProt P00748); assay: FXIIa inhibitor potency, concentration-response, biochemical (AID 716); format: functional
T2 sequence (P00748 whole entry): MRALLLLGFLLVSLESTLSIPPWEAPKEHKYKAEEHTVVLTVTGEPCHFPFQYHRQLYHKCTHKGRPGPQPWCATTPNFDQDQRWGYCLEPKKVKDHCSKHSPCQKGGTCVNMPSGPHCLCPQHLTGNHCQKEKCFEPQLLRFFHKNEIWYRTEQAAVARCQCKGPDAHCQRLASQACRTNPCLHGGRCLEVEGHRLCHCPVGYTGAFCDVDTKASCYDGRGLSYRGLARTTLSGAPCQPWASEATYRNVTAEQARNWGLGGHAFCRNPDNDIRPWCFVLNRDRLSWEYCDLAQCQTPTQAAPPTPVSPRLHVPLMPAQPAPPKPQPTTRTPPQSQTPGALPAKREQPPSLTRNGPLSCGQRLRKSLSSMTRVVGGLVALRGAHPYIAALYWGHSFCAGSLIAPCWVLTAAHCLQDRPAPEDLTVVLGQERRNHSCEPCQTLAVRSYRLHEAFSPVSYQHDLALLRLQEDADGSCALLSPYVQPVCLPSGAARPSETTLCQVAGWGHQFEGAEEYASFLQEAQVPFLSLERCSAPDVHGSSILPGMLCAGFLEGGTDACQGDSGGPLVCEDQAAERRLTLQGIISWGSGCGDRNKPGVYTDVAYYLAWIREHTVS

CAAX prenyl protease 1 = CAAX prenyl protease 1 (Saccharomyces cerevisiae S288c, UniProt P47154); assay: Ste24 protease inhibitors, dose response, biochemical, S. cerevisiae, plate reader, cherry-pick (AID 488815)
[1] = biological target: T3, Replicative DNA helicase DnaB (Mycobacterium tuberculosis, UniProt P9WMR3); assay: DnaB intein splicing inhibitors, dose response, biochemical, cell-free fluorescence (AID 449749); format: functional
T3 sequence (P9WMR3 whole entry): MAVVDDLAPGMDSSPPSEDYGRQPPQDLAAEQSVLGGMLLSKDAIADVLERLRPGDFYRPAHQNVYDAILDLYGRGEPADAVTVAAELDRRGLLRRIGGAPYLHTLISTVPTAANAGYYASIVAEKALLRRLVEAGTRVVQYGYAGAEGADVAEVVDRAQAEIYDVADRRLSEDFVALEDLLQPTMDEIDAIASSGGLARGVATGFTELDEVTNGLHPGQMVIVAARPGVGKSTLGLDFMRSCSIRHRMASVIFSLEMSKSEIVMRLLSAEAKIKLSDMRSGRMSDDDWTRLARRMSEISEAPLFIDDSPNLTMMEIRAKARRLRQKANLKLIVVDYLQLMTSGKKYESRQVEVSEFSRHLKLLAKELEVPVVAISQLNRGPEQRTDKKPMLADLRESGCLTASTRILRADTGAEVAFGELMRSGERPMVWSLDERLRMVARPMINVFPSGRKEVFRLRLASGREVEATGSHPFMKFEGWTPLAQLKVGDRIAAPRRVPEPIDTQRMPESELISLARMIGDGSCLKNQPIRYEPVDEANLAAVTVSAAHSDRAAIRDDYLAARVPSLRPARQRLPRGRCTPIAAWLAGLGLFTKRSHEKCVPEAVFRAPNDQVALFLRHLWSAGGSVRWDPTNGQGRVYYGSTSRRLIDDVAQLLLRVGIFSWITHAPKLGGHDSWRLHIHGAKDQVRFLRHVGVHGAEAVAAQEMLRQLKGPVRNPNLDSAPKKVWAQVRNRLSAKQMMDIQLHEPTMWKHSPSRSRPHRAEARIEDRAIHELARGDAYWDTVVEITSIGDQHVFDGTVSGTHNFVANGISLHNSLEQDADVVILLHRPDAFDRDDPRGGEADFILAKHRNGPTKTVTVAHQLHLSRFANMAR

CAAX prenyl protease 2 [2] = biological target: T4, CAAX prenyl protease 2 (Homo sapiens, UniProt Q9Y256); assay: human Rce1 protease inhibitors, dose response, biochemical, yeast membranes, quenched-peptide fluorescence, cherry-pick (AID 588849)
T4 sequence (Q9Y256 whole entry): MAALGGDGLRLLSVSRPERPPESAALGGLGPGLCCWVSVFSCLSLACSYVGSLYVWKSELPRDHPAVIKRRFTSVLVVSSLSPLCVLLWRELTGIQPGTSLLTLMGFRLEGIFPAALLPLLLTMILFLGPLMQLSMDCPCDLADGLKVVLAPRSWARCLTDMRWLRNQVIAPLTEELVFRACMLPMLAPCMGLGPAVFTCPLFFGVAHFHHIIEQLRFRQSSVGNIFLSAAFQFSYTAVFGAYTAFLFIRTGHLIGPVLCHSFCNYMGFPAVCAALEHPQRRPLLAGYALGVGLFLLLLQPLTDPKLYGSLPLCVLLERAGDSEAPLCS

Trypsin = Trypsin (Sus scrofa, UniProt P00761); assay: porcine trypsin inhibitors, dose response, selectivity assay for Rce1 protease inhibitor project, biochemical, quenched peptide fluorescence, cherry-pick (AID 488789)
CAAX prenyl protease 2 [3] = biological target: T5, CAAX prenyl protease 2 (Saccharomyces cerevisiae S288c, UniProt Q03530); format: biochemical
T5 sequence (Q03530 whole entry): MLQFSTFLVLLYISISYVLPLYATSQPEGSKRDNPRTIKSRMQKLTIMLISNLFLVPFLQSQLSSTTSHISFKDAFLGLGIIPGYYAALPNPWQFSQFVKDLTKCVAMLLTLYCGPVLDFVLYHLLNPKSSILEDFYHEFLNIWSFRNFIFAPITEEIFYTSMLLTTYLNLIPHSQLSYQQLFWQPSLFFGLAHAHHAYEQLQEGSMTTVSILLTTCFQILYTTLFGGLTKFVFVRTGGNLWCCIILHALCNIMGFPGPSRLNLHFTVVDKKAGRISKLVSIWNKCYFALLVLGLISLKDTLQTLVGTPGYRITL

[4] = inhibitors of SNCA 5'UTR-driven reporter translation, confirmation, H4 neuroglioma cells, luminescence (AID 1988); format: functional, cell-based
[5] = Luminescence Cell-Based Dose Response HTS to Identify Inhibitors of 5'UTR Stem-Loop Driven Prion Protein mRNA Translation in H4 Neuroglioblastoma Cells. [Related pubchem assays: 1827 (Project Summary), 1813 (Primary HTS)]; format: functional
[6] = growth induction of Burl-1 ts yeast mutant, dose response, counter-screen for SUMOylation pathway inhibitor project, whole organism, S. cerevisiae, luminescence (AID 463199); format: functional
H9c2 = assay: cells; format: functional, cell-based; details: Rattus norvegicus, H9c2, Myocardium;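 note: confirmatory concentration-response retest of ultra-high-throughput screening hits for modulation of myocardial damage; cell death induced by hydrogen peroxide oxidative stress; compound pretreatment for 60 min then peroxide exposure for 2 h; potency is for protecting the cells against peroxide damage rather than for killing them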
[7] = inhibitors of firefly luciferase expression or activity, dose response, H4 neuroglioma cells, luminescence (AID 1990); format: functional, cell-based
[8] = biological target: T6, G-protein coupled receptor 55 (Homo sapiens, UniProt Q9Y2T6); assay: GPR55 agonists via beta-arrestin recruitment, primary screen, imaging, U2OS cells, beta-arrestin-GFP redistribution (AID 1961); format: functional
[9] = biological target: T7, Tyrosine-protein phosphatase non-receptor type 22 (Homo sapiens, UniProt Q9Y2R2); assay: LYP (PTPN22) phosphatase inhibitor potency, SAR follow-up, biochemical, pCAP fluorogenic substrate, fluorescence, set 3 (AID 449727); format: functional
T7 sequence (Q9Y2R2 whole entry): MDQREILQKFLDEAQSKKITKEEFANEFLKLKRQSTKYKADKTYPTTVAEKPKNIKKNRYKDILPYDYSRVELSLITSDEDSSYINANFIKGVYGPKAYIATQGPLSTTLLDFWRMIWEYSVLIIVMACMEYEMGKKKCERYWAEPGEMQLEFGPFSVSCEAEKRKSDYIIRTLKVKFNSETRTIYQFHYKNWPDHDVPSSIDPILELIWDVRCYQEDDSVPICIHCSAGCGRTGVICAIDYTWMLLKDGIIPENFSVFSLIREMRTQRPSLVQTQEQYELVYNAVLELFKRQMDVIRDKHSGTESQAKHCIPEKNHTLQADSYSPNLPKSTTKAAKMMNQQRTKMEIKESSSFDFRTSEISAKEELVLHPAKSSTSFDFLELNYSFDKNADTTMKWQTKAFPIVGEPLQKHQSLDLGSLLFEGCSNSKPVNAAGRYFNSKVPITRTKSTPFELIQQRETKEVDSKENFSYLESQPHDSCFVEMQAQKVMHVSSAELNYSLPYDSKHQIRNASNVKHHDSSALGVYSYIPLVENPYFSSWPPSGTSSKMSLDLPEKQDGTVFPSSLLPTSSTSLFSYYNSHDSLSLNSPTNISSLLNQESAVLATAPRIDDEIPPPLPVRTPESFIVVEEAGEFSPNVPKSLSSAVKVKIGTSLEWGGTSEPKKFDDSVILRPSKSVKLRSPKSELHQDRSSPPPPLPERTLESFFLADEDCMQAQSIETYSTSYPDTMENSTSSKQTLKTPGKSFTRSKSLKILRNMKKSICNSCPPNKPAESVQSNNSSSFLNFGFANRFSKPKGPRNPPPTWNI

[10] = biological target: T8, G-protein coupled receptor 35 (Homo sapiens, UniProt Q9HC97); assay: GPR35 antagonists blocking zaprinast-driven arrestin recruitment, primary screen, imaging, U2OS, beta-arrestin-GFP, zaprinast agonist (AID 2058); format: functional;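 note: antagonist potency meaning inhibition of agonist-induced arrestin redistribution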
[11] = biological target: T8, G-protein coupled receptor 35; assay: SAR Analysis for the identification of Selective Antagonists of ERK1/2 Activity in GPR35-Overexpressing U2OS Cells. [Related pubchem assays: 2079, 2058 ]; format: functional, cell-based
[12] = biological target: T6, G-protein coupled receptor 55; assay: GPR55 antagonists, SAR follow-up, counter-screen for GPR35 antagonist project, imaging, image-based (AID 2397); format: functional
[13] = biological target: Tyrosine-protein phosphatase non-receptor type 12 (Homo sapiens, UniProt Q05209); assay: SAR Selectivity Analysis of small molecule inhibitors of PEST using pCAP in a fluorescence assay. [Related pubchem assays (depositor defined):AID1779, AID1784, AID2135]; format: functional
[14] = biological target: T9, Tyrosine-protein phosphatase non-receptor type 7 (Homo sapiens, UniProt P35236); assay: HePTP (PTPN7) phosphatase inhibitor potency, SAR follow-up, biochemical, set 2 (AID 449736); format: functional
T9 sequence (P35236 whole entry): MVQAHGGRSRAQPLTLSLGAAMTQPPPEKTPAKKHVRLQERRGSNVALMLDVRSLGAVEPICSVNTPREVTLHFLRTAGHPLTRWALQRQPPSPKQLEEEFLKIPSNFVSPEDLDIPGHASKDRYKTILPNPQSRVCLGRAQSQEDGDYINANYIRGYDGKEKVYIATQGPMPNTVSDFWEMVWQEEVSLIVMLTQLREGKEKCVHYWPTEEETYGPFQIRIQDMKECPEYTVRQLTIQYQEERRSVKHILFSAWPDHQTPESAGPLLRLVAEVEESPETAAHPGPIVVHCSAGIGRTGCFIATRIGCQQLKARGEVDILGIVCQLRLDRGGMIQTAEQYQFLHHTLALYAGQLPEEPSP

[15] = biological target: T7, Tyrosine-protein phosphatase non-receptor type 22; assay: SAR LYP1 Fluorescent Assay using OMFP substrate for In Vitro dose response studies - Set 3. [Related pubchem assays (depositor defined):AID1779, AID1784, AID2140, AID2686]; format: functional
SUMO E1/E2 = SUMO E1/E2 (Homo sapiens, UniProt P63279+Q9UBE0+Q9UBT2); assay: SAR analysis of SUMOylation using HTRF in an in-Vitro dose response assay. [Related pubchem assays (depositor defined):AID2006, AID2011, AID2018, AID2069, AID2658]; format: functional
Chain of SUMO E1/E2 (Q9UBE0 whole entry): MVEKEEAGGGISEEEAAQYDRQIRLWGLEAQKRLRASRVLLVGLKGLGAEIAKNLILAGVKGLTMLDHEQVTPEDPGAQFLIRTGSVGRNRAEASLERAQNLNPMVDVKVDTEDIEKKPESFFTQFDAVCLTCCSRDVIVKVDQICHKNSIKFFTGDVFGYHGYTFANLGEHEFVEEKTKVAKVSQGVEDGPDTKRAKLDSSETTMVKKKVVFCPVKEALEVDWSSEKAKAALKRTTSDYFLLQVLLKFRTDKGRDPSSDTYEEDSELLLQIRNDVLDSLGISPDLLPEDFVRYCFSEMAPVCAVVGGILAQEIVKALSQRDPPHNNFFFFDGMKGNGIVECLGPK
Chain of SUMO E1/E2 (Q9UBT2 whole entry): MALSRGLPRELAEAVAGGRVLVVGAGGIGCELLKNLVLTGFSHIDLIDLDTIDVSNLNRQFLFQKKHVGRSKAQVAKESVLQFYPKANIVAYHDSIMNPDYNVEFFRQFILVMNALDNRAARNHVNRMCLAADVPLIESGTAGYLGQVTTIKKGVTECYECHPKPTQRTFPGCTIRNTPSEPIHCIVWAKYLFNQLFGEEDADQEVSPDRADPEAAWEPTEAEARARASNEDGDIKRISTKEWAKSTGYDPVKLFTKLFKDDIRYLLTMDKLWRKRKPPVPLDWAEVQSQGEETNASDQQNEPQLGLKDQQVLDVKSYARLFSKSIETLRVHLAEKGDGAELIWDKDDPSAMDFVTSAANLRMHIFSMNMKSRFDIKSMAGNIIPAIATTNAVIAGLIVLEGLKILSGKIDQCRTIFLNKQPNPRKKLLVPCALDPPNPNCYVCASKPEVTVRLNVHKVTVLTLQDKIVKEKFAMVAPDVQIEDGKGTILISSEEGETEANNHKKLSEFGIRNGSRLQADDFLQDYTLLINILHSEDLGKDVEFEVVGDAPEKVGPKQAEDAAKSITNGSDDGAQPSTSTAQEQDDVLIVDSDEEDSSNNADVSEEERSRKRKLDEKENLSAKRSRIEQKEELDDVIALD
Chain of SUMO E1/E2 (P63279 whole entry): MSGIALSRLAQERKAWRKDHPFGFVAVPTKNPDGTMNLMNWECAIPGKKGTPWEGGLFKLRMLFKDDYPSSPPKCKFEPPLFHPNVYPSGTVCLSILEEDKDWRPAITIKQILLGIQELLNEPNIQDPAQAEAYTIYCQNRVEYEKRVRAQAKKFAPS

T8 sequence (Q9HC97 whole entry): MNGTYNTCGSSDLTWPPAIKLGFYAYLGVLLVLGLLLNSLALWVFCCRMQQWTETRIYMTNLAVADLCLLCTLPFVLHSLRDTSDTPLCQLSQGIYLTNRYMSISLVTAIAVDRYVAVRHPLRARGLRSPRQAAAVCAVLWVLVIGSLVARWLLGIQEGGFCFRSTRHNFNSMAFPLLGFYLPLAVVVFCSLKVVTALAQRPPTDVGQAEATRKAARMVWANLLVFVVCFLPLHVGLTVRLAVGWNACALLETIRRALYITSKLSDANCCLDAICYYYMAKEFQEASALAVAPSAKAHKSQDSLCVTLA
T6 sequence (Q9Y2T6 whole entry): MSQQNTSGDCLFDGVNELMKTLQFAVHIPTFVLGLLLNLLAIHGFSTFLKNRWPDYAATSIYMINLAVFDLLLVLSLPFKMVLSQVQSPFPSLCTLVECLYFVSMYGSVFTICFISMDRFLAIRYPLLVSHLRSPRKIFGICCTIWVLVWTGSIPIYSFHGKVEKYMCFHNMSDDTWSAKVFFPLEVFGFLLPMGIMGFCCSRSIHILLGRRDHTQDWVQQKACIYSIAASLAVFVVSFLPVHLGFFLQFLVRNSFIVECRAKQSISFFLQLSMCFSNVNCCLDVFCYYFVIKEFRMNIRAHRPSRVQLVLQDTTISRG
Chain of Tyrosine-protein phosphatase non-receptor type 12 (Q05209 whole entry): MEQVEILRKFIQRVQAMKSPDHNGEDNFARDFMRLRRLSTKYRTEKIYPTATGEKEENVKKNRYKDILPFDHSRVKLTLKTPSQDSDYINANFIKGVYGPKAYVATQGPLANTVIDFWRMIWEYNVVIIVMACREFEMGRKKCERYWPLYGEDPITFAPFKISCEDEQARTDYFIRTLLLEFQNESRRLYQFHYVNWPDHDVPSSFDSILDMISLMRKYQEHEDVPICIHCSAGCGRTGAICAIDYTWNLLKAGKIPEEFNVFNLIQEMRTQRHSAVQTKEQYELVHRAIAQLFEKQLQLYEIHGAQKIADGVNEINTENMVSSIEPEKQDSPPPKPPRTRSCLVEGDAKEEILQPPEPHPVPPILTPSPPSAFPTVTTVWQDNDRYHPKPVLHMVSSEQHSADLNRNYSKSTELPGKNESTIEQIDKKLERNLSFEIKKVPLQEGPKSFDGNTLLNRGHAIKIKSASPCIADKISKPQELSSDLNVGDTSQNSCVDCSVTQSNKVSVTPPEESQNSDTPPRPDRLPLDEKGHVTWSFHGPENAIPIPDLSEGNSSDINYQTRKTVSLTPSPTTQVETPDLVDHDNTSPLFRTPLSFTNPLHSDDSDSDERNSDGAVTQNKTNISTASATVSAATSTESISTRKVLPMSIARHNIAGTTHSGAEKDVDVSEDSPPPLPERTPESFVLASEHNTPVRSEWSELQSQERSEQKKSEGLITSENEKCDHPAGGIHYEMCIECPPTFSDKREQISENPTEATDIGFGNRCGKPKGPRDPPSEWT
Chain of Trypsin (P00761 whole entry): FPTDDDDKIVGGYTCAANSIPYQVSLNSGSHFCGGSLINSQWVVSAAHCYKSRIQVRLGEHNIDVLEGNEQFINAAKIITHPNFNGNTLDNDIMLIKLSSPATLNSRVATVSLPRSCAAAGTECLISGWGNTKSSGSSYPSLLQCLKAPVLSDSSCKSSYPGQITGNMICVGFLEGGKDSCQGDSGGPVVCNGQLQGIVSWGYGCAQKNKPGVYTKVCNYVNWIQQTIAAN
Chain of CAAX prenyl protease 1 (P47154 whole entry): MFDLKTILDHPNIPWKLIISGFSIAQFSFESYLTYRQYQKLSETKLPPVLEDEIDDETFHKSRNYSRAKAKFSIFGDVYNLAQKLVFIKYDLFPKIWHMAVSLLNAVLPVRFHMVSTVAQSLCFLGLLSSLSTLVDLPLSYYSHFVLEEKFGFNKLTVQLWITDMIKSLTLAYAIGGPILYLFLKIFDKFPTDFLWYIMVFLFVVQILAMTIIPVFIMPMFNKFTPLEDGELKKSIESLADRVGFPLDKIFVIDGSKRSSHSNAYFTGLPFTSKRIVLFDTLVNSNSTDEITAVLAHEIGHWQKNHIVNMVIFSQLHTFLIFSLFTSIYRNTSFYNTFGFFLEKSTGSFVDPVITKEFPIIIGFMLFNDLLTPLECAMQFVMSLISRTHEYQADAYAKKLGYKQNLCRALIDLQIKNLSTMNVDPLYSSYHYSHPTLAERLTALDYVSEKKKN

CC(C)C(=O)N1CCN(c2nc(-c3ccccc3)c3c(c2C#N)CCCC3)CC1
active: EC50 (Protein RecA) 38.4 µM | AC50 (CAAX prenyl protease 1) 6.09 µM | AC50 [1] 7.76 µM | AC50 (CAAX prenyl protease 2 [2]) 7.27 µM | AC50 (Trypsin) 1.74 µM | AC50 (CAAX prenyl protease 2 [3]) 14.4 µM
inactive: IC50 (Coagulation factor XII) > 50 µM

CCOC(=O)c1ccccc1NC(=O)CSc1ccc(-c2ccccn2)nn1
> 120 µM (not active): EC50 [5]
active: EC50 [4] 10.8 µM | AC50 [6] 62.6 µM | IC50 (H9c2) 5.14 µM | EC50 [7] 11.7 µM

Cc1ccc(/C=C2\SC(=S)N(CCCC(=O)Nc3cccc(C(=O)O)c3)C2=O)cc1
inactive: IC50 [12] > 32 µM
active: EC50 [8] 1.45 µM | IC50 [9] 39 µM | IC50 [10] < 0.5 µM | IC50 [11] 1.39 µM | IC50 [13] 15.9 µM | IC50 [14] 2.79 µM | IC50 [15] 30.2 µM

O=S(=O)(Nc1ccccc1F)c1ccc2c(c1)C1C=CCC1C(c1ccc(F)cc1)N2 (stereo unspecified)
inactive: IC50 (SUMO E1/E2) > 100 µM
